Data on 2 compounds can be found in patent publication US11406628B2, “Sustained-release triptan compositions and method of use the same through subdermal route or the like” (Taiwan Liposome Co., Ltd, priority 2017, dated 2022).

Read-outs that look alike come from different tables or passages of the source.

For data set [1] the following is noted: human, cited from earlier work.
The conditions of data set [2]: female rats, cited from earlier work; for Cmax/dose: normalization using sumatriptan succinate dosage.
For data set [3], the system named is patients. The conditions noted are these: within 24 hours or 48 hours of initial symptom resolution; cited from earlier work.
Data set [4] is described as follows: Pharmacokinetic study of liposomal sumatriptan in rats after single subcutaneous administration. How it is done:
Jugular vein cannulated (JVC) female Sprague-Dawley rats (7-9 weeks) were used for a pharmacokinetic (PK) study. The rats were housed in a holding room which operates on a 12-hour light/12-hour dark circadian cycle with free access (ad libitum) to water and food.
Blood samples were collected at 2, 4, 8, 24, 48 and 72 hours post-injection. Plasma samples were obtained by centrifugation and then dimethyl sulfoxide was added to the plasma samples at a final concentration of 5% (v/v) for storing the samples at −80° C. until analysis. One-hundred microliters of each sample were subject to separation of sumatriptan by a Strata C18-E tube to obtain the sumatriptan fraction and sumatriptan concentration was determined employing LC-MS/MS methods.
The unformulated sumatriptan injection was prepared by dissolving the sumatriptan tartrate in ultrapure water at 2 mg/mL. The in vivo PK profiles of the rats (n=3) administrated with unformulated sumatriptan following subcutaneous injection at the dosage of 3 mg/kg of sumatriptan tartrate were compared to the PK profiles of the rats administered 10 mg/kg of sumatriptan from the liposomal sumatriptan formulation. Blood samples were collected at 15 mins, 0.5, 1, 2, 4, 6 and 8 hours post-injection. Plasma samples were obtained by centrifugation and were kept frozen at −80° C. until analysis.
FIG. 1 depicts the mean sumatriptan concentration versus time curve over 72 hours post-injection. Table 2 provides a summary of the PK parameters which were obtained using a noncompartmental model within the PKSolver program.

Where [5] appears, read: unformulated 3 mg/kg, liposomal 10 mg/kg.

As for `CNS(=O)(=O)Cc1ccc2[nH]cc(CCN(C)C)c2c1` [sumatriptan], the “half-life (t1/2)” value in data set [1] (6 mg subcutaneous injection) is 2 h; in data set [1] (20 mg intranasal administration), 1.8 h; in data set [1] (100 mg oral tablet), 2 h; in data set [1] (irrespective of route of administration) it was “approximately 2 hours”. The “time to reach maximum plasma concentration” value in data set [1] (subcutaneous injection) was “approximately 10 minutes”. Moreover, the t1/2 in data set [2] (intranasal administration) is 3.6 h; in data set [2] (intravenous administration), 1.1 h. For the same compound, the figures for the Cmax/dose in data set [2] (intranasal) and in data set [2] (intravenous) were 25 ng/mL and 508.6 ng/mL, respectively. For the same compound, the migraine recurrence rate result in data set [3] is “about 40%”.
As a reminder, the Cmax is the peak of the concentration-time curve. In data set [4] (dose-normalized), “sumatriptan tartrate [Unformulated Sumatriptan]” had an AUC0-t/dose of 226.9 and a Cmax/dose of 138. Besides, in data set [4] (setting [5]), the AUC0-inf was determined as 687.4 ng·h/mL, the AUC0-t came to 680.6 ng·h/mL, the Cmax amounted to 414 ng/mL and the t1/2 is 1.1 h.
